Data from paper PMC11237694, “Novel pentafluorosulfanyl-containing triclocarban analogs selectively kill Gram-positive bacteria” (Microbiology Spectrum, 2024).
Converted amounts (≈) assume the structure as drawn.

Tests used:
[1] = tested on: Klebsiella pneumoniae ATCC; experiment: Planktonic susceptibility (MIC/MBC), 96-well broth microdilution; assay type: cell-based; conditions: K. pneumonia; for MIC: planktonic, overnight 37°C in MHB
Protocol: (§1) All bacterial strains subjected to testing had been stored at −70°C prior to the experiment. The experiment commenced by streaking small amounts of the frozen bacterial samples onto Muller-Hinton agar (MHA) culture medium (BD Bacto, Oxoid, Basingstoke, UK Cat# X296B) and allowing for overnight incubation. Bacteria were re-cultured on MHA plates as required to confirm colony morphology and lack of contamination. Strains tested were P. aeruginosa ATCC 27853, E. coli ATCC 25922, Staphylococcus aureus ATCC 25923, MRSA ATCC 33591, S. epidermidis ATCC 12228, Klebsiella pneumoniae ATCC, P. mirabilis ATCC 35659, and 10 clinical isolates of MRSA from Foothills Hospital, Calgary, Canada. To prepare for susceptibility testing, a protocol modified from Lemire et al was used ([28]). MHB was swab-inoculated from MHA colonies and shake-incubated until turbid. Dilution of the broth with 0.9% saline was performed as necessary to match a 1.0 McFarland standard.
(§2) MIC and MBC assessments were conducted on all bacterial strains using 96-well microtiter plates. To prepare the wells for bacteria, serial dilutions of the antibacterial agents were carried out along the rows of two microtiter plates. The antibacterials were 2-fold diluted with Mueller-Hinton broth (MHB) in each column, reaching a volume of 75 µL. The 1.0 McFarland standard was diluted 15-fold in MHB, and 75 µL of inoculum was added to the wells treated with antibacterials, resulting in a total volume of 150 µL. The microtiter plates were covered and then shake-incubated overnight at 150 rpm and 37°C. MIC was determined based on visible bacterial growth. In cases of antibacterial opacity or ambiguous results, streaking of well cultures on MHA, overnight incubation, and subsequent comparison with controls were performed. MBC was determined by transferring 3 µL of culture from all MIC microtiter plate wells to 147 µL of Mueller-Hinton broth in fresh plates. These plates were shake-incubated overnight at 150 rpm and 37°C, and bacterial growth was visually inspected.

P. mirabilis ATCC 35659 = experiment: as above; assay type: cell-based; conditions: Proteus mirabilis; for MBC: ATCC35659; for MIC: ATCC35659, planktonic, overnight 37°C in MHB
Protocol: as §1, §2

MRSA ATCC 33591 = experiment: as above; assay type: cell-based, methicillin-resistant S. aureus; conditions: Staphylococcus aureus, MRSA reference strain; for MIC: planktonic, overnight 37°C in MHB
Protocol: as §1
as §2, with “In cases of antibacterial opacity or ambiguous results, streaking of well cultures on MHA, overnight incubation, and subsequent comparison with controls were performed.” left out

[2] = tested on: Staphylococcus aureus ATCC 25923; experiment: as above; assay type: cell-based; conditions: Staphylococcus aureus, ATCC25923, S. aureus; for MIC: planktonic, overnight 37°C in MHB
Protocol: as §1, §2

[3] = tested on: 10 clinical isolates of MRSA from Foothills Hospital, Calgary; experiment: Planktonic susceptibility (MIC/MBC) of MRSA clinical isolates; assay type: cell-based, methicillin-resistant S. aureus; conditions: Staphylococcus aureus
Protocol: as §1
as §2, with “In cases of antibacterial opacity or ambiguous results, streaking of well cultures on MHA, overnight incubation, and subsequent comparison with controls were performed.” left out

[4] = tested on: S. epidermidis ATCC 12228; experiment: Planktonic susceptibility (MIC/MBC), 96-well broth microdilution; assay type: cell-based, Staphylococcus epidermidis; conditions: Staphylococcus epidermidis; for MBC: ATCC12228; for MIC: ATCC12228, planktonic, overnight 37°C in MHB
Protocol: as §1, §2

O=C(Nc1ccc(Cl)c(C(F)(F)F)c1)Nc1ccc2nnsc2c1 [A]
MBC [1]: > 5 mM
MIC [1]: > 5 mM
MBC (P. mirabilis ATCC 35659): > 5 mM
MIC (P. mirabilis ATCC 35659): > 5 mM

O=C(Nc1ccc(Cl)c(Cl)c1)Nc1ccc2nnsc2c1 [B]
MIC (MRSA ATCC 33591): 4900 µM (≈ 1660 µg/mL)
MBC [1]: > 5 mM
MIC [1]: > 5 mM
MIC [2]: 9800 µM (≈ 3320 µg/mL)
MBC (P. mirabilis ATCC 35659): > 5 mM
MIC (P. mirabilis ATCC 35659): > 5 mM

O=C(Nc1ccc2nnsc2c1)Nc1cccc(S(F)(F)(F)(F)F)c1Cl [EBP-24, 3-(1,2,3-benzothiadiazol-6-yl)-1-(2-chloro-3-pentafluoro-λ^6-sulfanyl)urea]
MIC (MRSA ATCC 33591): 150 µM (≈ 64.6 µg/mL)
MBC [1]: > 5 mM
MIC [1]: > 5 mM
MBC [2]: 78 mM (≈ 33600 µg/mL)
MIC [2]: 76 µM (≈ 32.7 µg/mL)
MBC (P. mirabilis ATCC 35659): > 5 mM
MIC (P. mirabilis ATCC 35659): > 5 mM

O=C(Nc1ccc(Cl)c(S(F)(F)(F)(F)F)c1)Nc1ccc2nnsc2c1 [EBP-25, 3-(1,2,3-benzothiadiazol-6-yl)-1-(4-chloro-3-pentafluoro-λ^6-sulfanyl)urea]
MBC [1]: > 5 mM
MIC [1]: > 5 mM
MBC [2]: 78 mM (≈ 33600 µg/mL)
MIC [2]: 9800 µM (≈ 4220 µg/mL)
MBC (P. mirabilis ATCC 35659): > 5 mM
MIC (P. mirabilis ATCC 35659): > 5 mM

O=C(Nc1ccc(S(F)(F)(F)(F)F)cc1)Nc1ccc(S(F)(F)(F)(F)F)cc1 [EBP-33, 1,3-bis(4-pentafluoro-λ^6-sulfanyl)urea]
MBC (MRSA ATCC 33591): 2400 µM (≈ 1110 µg/mL)
MIC (MRSA ATCC 33591): 4.8 µM (≈ 2.23 µg/mL)
MBC [1]: > 5 mM
MIC [1]: > 5 mM
MBC [2]: 20 mM (≈ 9290 µg/mL)
MIC [2]: 19 µM (≈ 8.82 µg/mL)
MBC (P. mirabilis ATCC 35659): > 5 mM
MIC (P. mirabilis ATCC 35659): > 5 mM

O=C(Nc1ccc(Cl)c(C(F)(F)F)c1)Nc1ccc(Cl)c(C(F)(F)F)c1 [EBP-34, 1,3-di(4-chloro-3-(trifluoromethyl)phenyl)urea]
MBC ([3]; MRSA #1 clinical isolate): < 2 µM
MIC ([3]; MRSA #1 clinical isolate): 600 µM (≈ 250 µg/mL)
MBC ([3]; MRSA #2 clinical isolate): < 2 µM
MIC ([3]; MRSA #2 clinical isolate): < 2 µM
MBC ([3]; MRSA #3 clinical isolate): 80 µM (≈ 33.4 µg/mL)
MIC ([3]; MRSA #3 clinical isolate): 80 µM (≈ 33.4 µg/mL)
MBC ([3]; MRSA #4 clinical isolate): < 2 µM
MIC ([3]; MRSA #4 clinical isolate): < 2 µM
MBC ([3]; MRSA #5 clinical isolate): 10 µM (≈ 4.17 µg/mL)
MIC ([3]; MRSA #5 clinical isolate): 10 µM (≈ 4.17 µg/mL)
MBC ([3]; MRSA #6 clinical isolate): 10 µM (≈ 4.17 µg/mL)
MIC ([3]; MRSA #6 clinical isolate): 10 µM (≈ 4.17 µg/mL)
MBC ([3]; MRSA #7 clinical isolate): 10 µM (≈ 4.17 µg/mL)
MIC ([3]; MRSA #7 clinical isolate): < 2 µM
MBC ([3]; MRSA #8 clinical isolate): 5 µM (≈ 2.09 µg/mL)
MIC ([3]; MRSA #8 clinical isolate): 5 µM (≈ 2.09 µg/mL)
MBC ([3]; MRSA #9 clinical isolate): < 2 µM
MIC ([3]; MRSA #9 clinical isolate): < 2 µM
MBC ([3]; MRSA #10 clinical isolate): 10 µM (≈ 4.17 µg/mL)
MIC ([3]; MRSA #10 clinical isolate): < 2 µM
MBC (MRSA ATCC 33591): 61 µM (≈ 25.4 µg/mL)
MIC (MRSA ATCC 33591): 1.9 µM (≈ 0.793 µg/mL)
MBC [4]: 10 µM (≈ 4.17 µg/mL)
MIC [4]: 0.2 µM (≈ 0.0834 µg/mL)
MBC [1]: > 5 mM
MIC [1]: > 5 mM
MBC [2]: 0.01 mM (≈ 4.17 µg/mL)
MIC [2]: 3.8 µM (≈ 1.59 µg/mL)
MBC (P. mirabilis ATCC 35659): 0.625 mM (≈ 261 µg/mL)
MIC (P. mirabilis ATCC 35659): 0.625 mM (≈ 261 µg/mL)

O=C(Nc1cc(S(F)(F)(F)(F)F)ccc1Cl)Nc1cc(S(F)(F)(F)(F)F)ccc1Cl [EBP-36, 1,3-bis(2-chloro-5-pentafluoro-λ^6-sulfanyl)urea]
MBC (MRSA ATCC 33591): 9800 µM (≈ 5230 µg/mL)
MIC (MRSA ATCC 33591): 610 µM (≈ 325 µg/mL)
MBC [1]: > 5 mM
MIC [1]: > 5 mM
MBC [2]: 78 mM (≈ 41600 µg/mL)
MIC [2]: 76 µM (≈ 40.5 µg/mL)
MBC (P. mirabilis ATCC 35659): > 5 mM
MIC (P. mirabilis ATCC 35659): > 5 mM

O=C(Nc1ccc(Cl)c(C(F)(F)F)c1)Nc1cc(S(F)(F)(F)(F)F)ccc1Cl [EBP-37, 3-(4-chloro-3-(trifluoromethyl)phenyl)-1-(2-chloro-5-pentafluoro-λ^6-sulfanyl)urea]
MBC ([3]; MRSA #1 clinical isolate): 1200 µM (≈ 570 µg/mL)
MIC ([3]; MRSA #1 clinical isolate): 10 µM (≈ 4.75 µg/mL)
MBC ([3]; MRSA #2 clinical isolate): 10 µM (≈ 4.75 µg/mL)
MIC ([3]; MRSA #2 clinical isolate): < 2 µM
MBC ([3]; MRSA #3 clinical isolate): 600 µM (≈ 285 µg/mL)
MIC ([3]; MRSA #3 clinical isolate): 80 µM (≈ 38 µg/mL)
MBC ([3]; MRSA #4 clinical isolate): 10 µM (≈ 4.75 µg/mL)
MIC ([3]; MRSA #4 clinical isolate): < 2 µM
MBC ([3]; MRSA #5 clinical isolate): 10 µM (≈ 4.75 µg/mL)
MIC ([3]; MRSA #5 clinical isolate): 10 µM (≈ 4.75 µg/mL)
MBC ([3]; MRSA #6 clinical isolate): < 2 µM
MIC ([3]; MRSA #6 clinical isolate): < 2 µM
MBC ([3]; MRSA #7 clinical isolate): 40 µM (≈ 19 µg/mL)
MIC ([3]; MRSA #7 clinical isolate): 10 µM (≈ 4.75 µg/mL)
MBC ([3]; MRSA #8 clinical isolate): 10 µM (≈ 4.75 µg/mL)
MIC ([3]; MRSA #8 clinical isolate): < 2 µM
MBC ([3]; MRSA #9 clinical isolate): 10 µM (≈ 4.75 µg/mL)
MIC ([3]; MRSA #9 clinical isolate): 5 µM (≈ 2.38 µg/mL)
MBC ([3]; MRSA #10 clinical isolate): 10 µM (≈ 4.75 µg/mL)
MIC ([3]; MRSA #10 clinical isolate): < 2 µM
MBC (MRSA ATCC 33591): 40 µM (≈ 19 µg/mL)
MIC (MRSA ATCC 33591): 8 µM (≈ 3.8 µg/mL)
MBC [4]: 40 µM (≈ 19 µg/mL)
MIC [4]: 8 µM (≈ 3.8 µg/mL)
MBC [1]: > 5 mM
MIC [1]: > 5 mM
MBC [2]: 4.9 mM (≈ 2330 µg/mL)
MIC [2]: 1.2 µM (≈ 0.57 µg/mL)
MBC (P. mirabilis ATCC 35659): 0.625 mM (≈ 297 µg/mL)
MIC (P. mirabilis ATCC 35659): 0.625 mM (≈ 297 µg/mL)
